Assay [1] concerns the target Vascular endothelial growth factor receptor 2 (Homo sapiens, UniProt P35968). Nature of the assay: Inhibition of human VEGFR2 (unknown origin) incubated for 1 hrs in presence of ATP by ELISA assay. On the technique in general: An ELISA detects its analyte on a solid surface through an enzyme-linked reagent.
Assay [2] can be described thus: Inhibition of N-terminal His-tagged U2AF35-UHM (unknown origin) expressed in Escherichia coli Rosetta cells (DE3) incubated for 1 hr by HTRF method. Also on record: species or system Homo sapiens. Background: Time-resolved FRET reads energy transfer from a long-lived donor to a nearby acceptor.
The target in assay [3] is Programmed cell death protein 1/Programmed cell death 1 ligand 1 (Homo sapiens, UniProt Q15116+Q9NZQ7). The assay is described as follows: Inhibition of PD-1/PD-L1 interaction (unknown origin) incubated for 24 hrs by HTRF assay. It is filed as protein-complex assay.
Programmed cell death protein 1/Programmed cell death 1 ligand 1, sequence (Q15116 whole entry): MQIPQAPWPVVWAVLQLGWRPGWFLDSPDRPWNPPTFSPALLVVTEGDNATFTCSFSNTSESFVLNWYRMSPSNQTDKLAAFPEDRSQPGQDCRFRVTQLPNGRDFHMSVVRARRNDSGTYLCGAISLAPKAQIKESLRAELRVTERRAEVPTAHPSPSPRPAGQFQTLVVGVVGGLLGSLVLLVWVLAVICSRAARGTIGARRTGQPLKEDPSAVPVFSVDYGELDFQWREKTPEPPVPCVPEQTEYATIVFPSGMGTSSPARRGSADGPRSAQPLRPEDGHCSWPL
Programmed cell death protein 1/Programmed cell death 1 ligand 1, sequence (Q9NZQ7 whole entry): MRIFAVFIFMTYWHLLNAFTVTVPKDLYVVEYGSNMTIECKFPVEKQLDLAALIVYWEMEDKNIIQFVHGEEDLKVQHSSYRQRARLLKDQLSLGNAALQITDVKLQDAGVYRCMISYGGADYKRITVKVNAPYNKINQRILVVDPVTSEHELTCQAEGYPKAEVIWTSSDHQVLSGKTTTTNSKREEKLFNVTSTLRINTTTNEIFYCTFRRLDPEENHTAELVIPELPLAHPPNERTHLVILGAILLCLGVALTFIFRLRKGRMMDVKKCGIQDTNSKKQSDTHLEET
The next assay concerns the target T1, Splicing factor 45 (Homo sapiens, UniProt Q96I25).
T1 sequence (Q96I25 whole entry): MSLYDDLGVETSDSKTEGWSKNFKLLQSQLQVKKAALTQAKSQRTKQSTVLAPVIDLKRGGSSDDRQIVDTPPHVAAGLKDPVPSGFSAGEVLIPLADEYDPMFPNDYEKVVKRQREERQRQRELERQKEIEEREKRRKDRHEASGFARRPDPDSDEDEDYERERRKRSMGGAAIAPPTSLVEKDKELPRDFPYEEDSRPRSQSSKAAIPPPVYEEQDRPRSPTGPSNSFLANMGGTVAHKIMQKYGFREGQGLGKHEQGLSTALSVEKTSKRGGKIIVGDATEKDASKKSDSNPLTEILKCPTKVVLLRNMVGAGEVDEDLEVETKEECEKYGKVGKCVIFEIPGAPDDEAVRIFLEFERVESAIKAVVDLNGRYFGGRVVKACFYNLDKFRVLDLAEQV
The assay is described as follows: Inhibition of His-tagged SPF45-UHM (unknown origin) (301 to 401 residues) expressed in Escherichia coli BL21 (DE3) cells by using biotinylated-RKSRWDETP as substrate preincubated for 30 mins followed by substrate addition and measured after 1 hr by AlphaScreen assay.

Consider three compounds from ChEMBL document CHEMBL5385977, “Small molecules modulating RNA splicing: a review of targets and future perspectives” (RSC Med Chem, 2024).

Vascular endothelial growth factor receptor 2, sequence (P35968 whole entry): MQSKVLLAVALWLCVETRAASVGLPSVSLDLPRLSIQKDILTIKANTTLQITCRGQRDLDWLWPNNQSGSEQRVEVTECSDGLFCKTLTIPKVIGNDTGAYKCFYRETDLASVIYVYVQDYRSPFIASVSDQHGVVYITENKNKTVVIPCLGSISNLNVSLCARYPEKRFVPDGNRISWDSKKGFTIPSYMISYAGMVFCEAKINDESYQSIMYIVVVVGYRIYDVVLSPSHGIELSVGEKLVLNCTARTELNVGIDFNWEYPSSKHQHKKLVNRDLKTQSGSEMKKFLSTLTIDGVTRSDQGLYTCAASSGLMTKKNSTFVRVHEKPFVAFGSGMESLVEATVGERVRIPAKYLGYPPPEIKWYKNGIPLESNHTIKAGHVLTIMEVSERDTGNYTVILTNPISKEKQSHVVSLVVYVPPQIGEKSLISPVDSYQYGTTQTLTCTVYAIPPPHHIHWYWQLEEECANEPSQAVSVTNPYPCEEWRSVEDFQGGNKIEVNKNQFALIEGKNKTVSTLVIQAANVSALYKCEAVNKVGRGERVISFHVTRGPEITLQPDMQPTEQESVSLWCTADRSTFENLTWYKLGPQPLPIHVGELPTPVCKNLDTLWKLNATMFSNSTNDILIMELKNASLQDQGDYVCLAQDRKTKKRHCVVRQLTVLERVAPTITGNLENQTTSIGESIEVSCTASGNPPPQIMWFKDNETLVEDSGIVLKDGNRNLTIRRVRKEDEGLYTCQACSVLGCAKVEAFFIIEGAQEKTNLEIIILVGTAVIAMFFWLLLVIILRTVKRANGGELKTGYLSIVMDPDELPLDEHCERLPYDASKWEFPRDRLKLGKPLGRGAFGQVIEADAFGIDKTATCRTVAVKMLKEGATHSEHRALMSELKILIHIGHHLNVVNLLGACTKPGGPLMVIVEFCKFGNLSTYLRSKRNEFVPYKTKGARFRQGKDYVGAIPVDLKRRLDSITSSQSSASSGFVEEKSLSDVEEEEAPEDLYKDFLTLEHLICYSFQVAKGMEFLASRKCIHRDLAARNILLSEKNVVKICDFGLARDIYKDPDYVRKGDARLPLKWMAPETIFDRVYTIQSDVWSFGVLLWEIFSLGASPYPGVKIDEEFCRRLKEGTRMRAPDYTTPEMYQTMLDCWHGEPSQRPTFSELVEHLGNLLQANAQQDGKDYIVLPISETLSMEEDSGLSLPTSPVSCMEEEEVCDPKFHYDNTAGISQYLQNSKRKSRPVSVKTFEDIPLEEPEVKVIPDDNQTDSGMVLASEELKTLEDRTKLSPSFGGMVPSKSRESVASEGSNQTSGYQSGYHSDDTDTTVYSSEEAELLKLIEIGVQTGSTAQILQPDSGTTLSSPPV

`O=C(Nc1cc(C(F)(F)F)ccc1N1CCCCC1)c1ccncc1`: the 50% inhibitory concentration (IC50) – broadly, the concentration that inhibits the measured activity by half – in assay [1] amounted to 0.96 µM. Compound `CC(CCc1c[nH]c2ccccc12)N1C[C@H]2CC[C@@H](C1)C2N` (some centres undefined) came in with an IC50 in assay [2] of 74.9 µM. For `COc1cc2c(cc1OC)N(CCCN1CCN(CCO)CC1)c1cc(Cl)ccc1S2`, the IC50 in assay [3] amounted to 9.2 µM; against Splicing factor 45, 10.4 µM.
